US8022099B2, “N-benzyl pyrrolidine derivatives” (Hoffmann-La Roche Inc., priority 2008, dated 2011)

Assays:
human NK3 receptor = biological target: T1, human NK3 receptor (Homo sapiens, UniProt P29371); assay: [3H]SR142801 competition binding assay; conditions: hNK3 receptor binding, [3H]SR142801, membranes from HEK293 cells transiently expressing recombinant human NK3 receptor
T1 construct: expressed in transfected cells; host or cells: HEK293 cells (transient expression), membrane preparation
T1 sequence (P29371 1-465): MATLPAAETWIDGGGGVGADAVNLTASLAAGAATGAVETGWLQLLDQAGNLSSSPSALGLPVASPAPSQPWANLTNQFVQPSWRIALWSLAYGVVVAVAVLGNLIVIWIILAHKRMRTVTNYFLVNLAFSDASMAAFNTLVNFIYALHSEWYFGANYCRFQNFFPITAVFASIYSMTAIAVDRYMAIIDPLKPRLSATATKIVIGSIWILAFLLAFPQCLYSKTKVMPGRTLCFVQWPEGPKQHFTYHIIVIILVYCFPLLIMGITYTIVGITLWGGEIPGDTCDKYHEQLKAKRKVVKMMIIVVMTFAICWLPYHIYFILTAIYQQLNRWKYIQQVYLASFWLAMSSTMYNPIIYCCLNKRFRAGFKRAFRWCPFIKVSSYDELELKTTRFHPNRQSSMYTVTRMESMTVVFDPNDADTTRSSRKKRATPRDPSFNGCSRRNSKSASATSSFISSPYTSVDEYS
How it was run: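 Membranes from HEK293 cells transiently expressing human NK3 were incubated 75 min at RT with [3H]SR142801 at its KD and inhibitor (0.0003-10 μM) in Tris-HCl pH 7.4/MnCl2/phosphoramidon/BSA. Nonspecific binding used 10 μM SB222200. Ki from Hill-fitted IC50 via Cheng-Prusoff, duplicate determinations.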

[1] = phase II trial, cited from earlier work

| Compound | Ki (human NK3 receptor) [nM] | activity on positive symptoms of schizophrenia ([1]; altered behaviour, delusion, hallucinations, extreme emotions, excited motor activity, incoherent speech) | activity in the treatment of negative symptoms of schizophrenia ([1]; depression, anhedonia, social isolation, memory and attention deficits) |
| --- | --- | --- | --- |
| CN(Cc1ccc(C(F)(F)F)c(F)c1)[C@H]1CN(C(=O)N2CCN(CCCO)CC2)C[C@@H]1c1ccc(Cl)c(Cl)c1 (racemic) [Example 66, {(3SR,4RS)-3-(3,4-Dichloro-phenyl)-4-[(3-fluoro-4-trifluoromethyl-benzyl)-methyl-amino]-pyrrolidin-1-yl}-[4-(3-hydroxy-propyl)-piperazin-1-yl]-methanone] | 3 |  |  |
| CN(Cc1ccc(Cl)cc1)[C@H]1CN(C(=O)N2CCN(S(C)(=O)=O)CC2)C[C@@H]1c1ccc(Cl)cc1 (racemic) [Example 23, [(3RS,4SR)-3-[(4-Chloro-benzyl)-methyl-amino]-4-(4-chloro-phenyl)-pyrrolidin-1-yl]-(4-methanesulfonyl-piperazin-1-yl)-methanone] | 91 |  |  |
| CN(Cc1ccc(C(F)(F)F)c(F)c1)[C@H]1CN(C(=O)N2CCN(S(=O)(=O)N(C)C)CC2)C[C@@H]1c1ccc(Cl)c(Cl)c1 (racemic) [Example 76, 4-{(3SR,4RS)-3-(3,4-Dichloro-phenyl)-4-[(3-fluoro-4-trifluoromethyl-benzyl)-methyl-amino]-pyrrolidine-1-carbonyl}-piperazine-1-sulfonic acid dimethylamide] | 1.8 |  |  |
| CN(Cc1ccc(C#N)c(F)c1)[C@H]1CN(C(=O)N2CCN(S(C)(=O)=O)CC2)C[C@@H]1c1ccc(Cl)c(Cl)c1 (racemic) [Example 56, 4-({[(3RS,4SR)-4-(3,4-Dichloro-phenyl)-1-(4-methanesulfonyl-piperazine-1-carbonyl)-pyrrolidin-3-yl]-methyl-amino}-methyl)-2-fluoro-benzonitrile] | 22 |  |  |
| CN(Cc1ccc(C(F)(F)F)c(F)c1)[C@H]1CN(C(=O)CN2CCC(N(C)S(C)(=O)=O)CC2)C[C@@H]1c1ccc(Cl)c(Cl)c1 (racemic) [Example 144, N-[1-(2-{(3SR,4RS)-3-(3,4-Dichloro-phenyl)-4-[(3-fluoro-4-trifluoromethyl-benzyl)-methyl-amino]-pyrrolidin-1-yl}-2-oxo-ethyl)-piperidin-4-yl]-N-methyl-methanesulfonamide] | 5.9 |  |  |
| COc1ccc(N2CCN(C(=O)N3C[C@H](c4ccc(Cl)c(Cl)c4)[C@@H](N(C)Cc4ccc(C(F)(F)F)c(F)c4)C3)CC2)cc1 (racemic) [Example 64, {(3SR,4RS)-3-(3,4-Dichloro-phenyl)-4-[(3-fluoro-4-trifluoromethyl-benzyl)-methyl-amino]-pyrrolidin-1-yl}-[4-(4-methoxy-phenyl)-piperazin-1-yl]-methanone] | 2.8 |  |  |
| CN(Cc1ccc(C(F)(F)F)cc1)[C@H]1CN(C(=O)CCCCN2CCOCC2)C[C@@H]1c1ccc(Cl)c(Cl)c1 (racemic) [Example 84, 1-{(3SR,4RS)-3-(3,4-Dichloro-phenyl)-4-[methyl-(4-trifluoromethyl-benzyl)-amino]-pyrrolidin-1-yl}-5-morpholin-4-yl-pentan-1-one] | 15.5 |  |  |
| CC(=O)N(C)C1(c2ccccc2)CCN(CCC[C@]2(c3ccc(Cl)c(Cl)c3)CCCN(C(=O)c3ccccc3)C2)CC1 [SR 142,801, Osanetant] |  | active | inactive |
| CC1CN(CC(=O)N2C[C@H](c3ccc(Cl)c(Cl)c3)[C@@H](N(C)Cc3ccc(C(F)(F)F)c(F)c3)C2)CC(C)N1 (mixture of isomers) [Example 139, 1-{(3SR,4RS)-3-(3,4-Dichloro-phenyl)-4-[(3-fluoro-4-trifluoromethyl-benzyl)-methyl-amino]-pyrrolidin-1-yl}-2-(3,5-dimethyl-piperazin-1-yl)-ethanone] | 24.9 |  |  |
| C[C@@H]1CN(CC(=O)N2C[C@H](c3ccc(Cl)c(Cl)c3)[C@@H](N(C)Cc3ccc(C(F)(F)F)c(F)c3)C2)CCN1 (mixture of isomers) [Example 141, 1-{(3SR,4RS)-3-(3,4-Dichloro-phenyl)-4-[(3-fluoro-4-trifluoromethyl-benzyl)-methyl-amino]-pyrrolidin-1-yl}-2-((R)-3-methyl-piperazin-1-yl)-ethanone] | 59.7 |  |  |
| CN(Cc1ccc(C(F)(F)F)c(F)c1)[C@H]1CN(C(=O)CN2CCC(C#N)CC2)C[C@@H]1c1ccc(Cl)c(Cl)c1 (racemic) [Example 130, 1-(2-{(3SR,4RS)-3-(3,4-Dichloro-phenyl)-4-[(3-fluoro-4-trifluoromethyl-benzyl)-methyl-amino]-pyrrolidin-1-yl}-2-oxo-ethyl)-piperidine-4-carbonitrile] | 25.4 |  |  |
| CN(Cc1ccc(C(F)(F)F)cc1)[C@H]1CN(C(=O)N2CCN(S(C)(=O)=O)CC2)C[C@@H]1c1ccc(Cl)c(Cl)c1 (racemic) [Example 83, {(3SR,4RS)-3-(3,4-Dichloro-phenyl)-4-[methyl-(4-trifluoromethyl-benzyl)-amino]-pyrrolidin-1-yl}-(4-methanesulfonyl-piperazin-1-yl)-methanone] | 6 |  |  |
| CN(Cc1ccc(C(F)(F)F)c(F)c1)[C@H]1CN(C(=O)CN2CCN(CCCO)CC2)C[C@@H]1c1ccc(Cl)c(Cl)c1 (racemic) [Example 129, 1-{(3SR,4RS)-3-(3,4-Dichloro-phenyl)-4-[(3-fluoro-4-trifluoromethyl-benzyl)-methyl-amino]-pyrrolidin-1-yl}-2-[4-(3-hydroxy-propyl)-piperazin-1-yl]-ethanone] | 17.1 |  |  |
| CN(Cc1ccc(Cl)c(Cl)c1)[C@H]1CN(C(=O)N2CCN(S(C)(=O)=O)CC2)C[C@@H]1c1ccc(Cl)c(Cl)c1 (racemic) [Example 32] | 33.3 |  |  |
